From US7553505B2, “Health care product containing isoflavone aglycones and method of producing the same” (The Hong Kong University of Science and Technology, priority 2006, dated 2009)

How the values were obtained:
[1] = Mitchell et al., 1998; Setchell et al., 2003; cited from earlier work
[2] = Solubility in alcohol against temperature (FIG. 2); type: physicochemical; conditions: within the specific temperature range of FIG. 2
Text: FIG. 2 is a diagram showing the solubilities of genistein and daidzein in methanol against temperature.
The first step of the method as described above is extraction. This process of grinding starting materials disrupts their tissue structure to enable the isoflavone fractions more easily extracted by the organic solvent. Then, an organic solvent, preferably ethanol, is used to recover isoflavones based on the high solubilities and steadiness of isoflavones in the selected solvents. […] Ethanol (edible alcohol) is preferred in this invention to ensure the isoflavone product will not endanger human health even with the remains of solvent. The extraction is carried out at a temperature ranging from 40 to 90° C. for 2-24 hrs, with the material ratio (volume:weight) of solvent to flour between 1:1 and 10:1 (mL:g).

In the case of `O=c1c(-c2ccc(O)cc2)coc2cc(O)cc(O)c12` [genistein, Genistein], the “biological activities among the twelve soy isoflavones” value [1] is listed as “highest biological activities” and the “solubility in alcohol including methanol and ethanol versus temperature” value [2] is listed as “increase evidently with increasing temperature”.
